Results published in ChEMBL document CHEMBL1129178, “Thiol inhibitors of endothelin-converting enzyme” (Bioorg Med Chem Lett, 1996).
pIC50: −log10 of the molar value.

Target: T1, Endothelin-converting enzyme 1 (Rattus norvegicus, UniProt P42893)
T1 sequence (P42893 whole entry): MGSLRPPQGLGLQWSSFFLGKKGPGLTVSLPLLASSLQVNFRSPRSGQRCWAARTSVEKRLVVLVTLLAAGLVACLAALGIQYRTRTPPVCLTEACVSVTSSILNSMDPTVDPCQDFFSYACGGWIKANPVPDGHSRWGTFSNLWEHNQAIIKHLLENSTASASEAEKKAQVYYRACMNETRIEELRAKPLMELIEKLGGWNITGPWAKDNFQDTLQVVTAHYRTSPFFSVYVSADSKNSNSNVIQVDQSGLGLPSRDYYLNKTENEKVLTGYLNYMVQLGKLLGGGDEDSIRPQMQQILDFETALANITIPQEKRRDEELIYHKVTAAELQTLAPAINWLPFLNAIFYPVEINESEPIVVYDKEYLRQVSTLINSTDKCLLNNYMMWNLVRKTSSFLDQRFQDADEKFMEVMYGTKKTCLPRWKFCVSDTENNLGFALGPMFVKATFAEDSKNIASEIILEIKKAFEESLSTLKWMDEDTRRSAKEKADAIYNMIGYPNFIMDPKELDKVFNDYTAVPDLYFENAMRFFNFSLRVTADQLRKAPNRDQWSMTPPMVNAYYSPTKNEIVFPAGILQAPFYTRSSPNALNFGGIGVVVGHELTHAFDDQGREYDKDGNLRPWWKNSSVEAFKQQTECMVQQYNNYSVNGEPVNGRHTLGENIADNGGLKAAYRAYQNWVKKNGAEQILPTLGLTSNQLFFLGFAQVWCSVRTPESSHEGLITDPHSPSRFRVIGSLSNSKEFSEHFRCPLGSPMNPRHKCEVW
Assay: In vitro inhibition of Endothelin-converting enzyme 1 from rat lungs.

Row | Structure (SMILES) | pIC50
1 | COC(=O)[C@H](Cc1c[nH]c2ccccc12)NC(=O)[C@H](CS)Cc1ccccc1 | 5.46
2 | O=C(N[C@@H](Cc1c[nH]c2ccccc12)C(=O)O)C(CS)Cc1cc2c(cc1Cl)OCO2 (stereo partly specified) | 6.40
3 | O=C(N[C@@H](Cc1c[nH]c2ccccc12)C(=O)O)[C@H](CS)Cc1ccccc1 | 6.30
4 | O=C(N[C@@H](Cc1ccc(-c2cccs2)cc1)C(=O)O)C(CS)Cc1cccc(Br)c1 (stereo partly specified) | 7.10
5 | O=C(N[C@@H](Cc1c[nH]c2ccccc12)C(=O)O)[C@@H](CS)Cc1ccccc1 | 6.74
6 | O=C(N[C@@H](Cc1c[nH]c2ccccc12)C(=O)O)C(CS)Cc1ccccc1 (stereo partly specified) | 6.47
7 | COC(=O)[C@H](Cc1c[nH]c2ccccc12)NC(=O)[C@H](S)Cc1ccccc1 | 5.66
8 | O=C(N[C@@H](Cc1c[nH]c2ccccc12)C(=O)O)C(CS)Cc1ccc(OCc2ccccc2)cc1 (stereo partly specified) | 6.10
9 | O=C(N[C@@H](Cc1c[nH]c2ccccc12)C(=O)O)[C@H](S)Cc1ccccc1 | 6.40
10 | O=C(N[C@@H](Cc1c[nH]c2ccccc12)C(=O)O)C(CS)Cc1ccc(Br)cc1 (stereo partly specified) | 7.60
11 | COC(=O)[C@H](Cc1c[nH]c2ccccc12)NC(=O)[C@@H](CS)Cc1ccccc1 | 5.74

More lines, now with the values ahead:

Row | pIC50 | Structure (SMILES)
12 | 6.52 | O=C(N[C@@H](Cc1ccc(-c2ccc3ccccc3c2)cc1)C(=O)O)[C@@H](CS)Cc1ccccc1
13 | 7.26 | O=C(N[C@@H](Cc1ccc(-c2cccs2)cc1)C(=O)O)[C@@H](CS)Cc1ccccc1
14 | 5.55 | O=C(N[C@@H](Cc1ccc(O)cc1)C(=O)O)[C@@H](CS)Cc1ccccc1
15 | 6.82 | O=C(N[C@@H](Cc1ccc(-c2ccccc2)cc1)C(=O)O)[C@@H](CS)Cc1ccccc1
16 | 6.15 | O=C(N[C@@H](Cc1ccc(OCc2ccccc2)cc1)C(=O)O)[C@@H](CS)Cc1ccccc1
17 | 7.40 | O=C(N[C@@H](Cc1c[nH]c2ccccc12)C(=O)O)C(CS)Cc1ccc(-c2ccccc2)cc1 (stereo partly specified)
18 | 6.10 | COc1ccc(-c2ccc(C[C@H](NC(=O)[C@@H](CS)Cc3ccccc3)C(=O)O)cc2)cc1
19 | 7.40 | O=C(N[C@@H](Cc1c[nH]c2ccccc12)C(=O)O)C(CS)Cc1cccc(-c2ccccc2)c1 (stereo partly specified)
20 | 5.92 | O=C(N[C@@H](Cc1ccccc1)C(=O)O)[C@@H](CS)Cc1ccccc1

Target: T2, Endothelin-converting enzyme 1 (Rattus norvegicus) (UniProt P42893)
T2 sequence (whole entry): T1 sequence (P42893 whole entry)
Assay: In vitro inhibition of cleavage of [3H]propionyl-big ET-1(19-35) by Endothelin-converting enzyme 1 from rat lungs at 10000 nM

Row | inhibition [%] | Structure (SMILES)
21 | 65 | O=C(O)[C@H](Cc1c[nH]c2ccccc12)NC(=O)[C@@H](S)Cc1ccccc1
